The values below come from patent publication US11667621B2, “Antiestrogen compounds” (STEVENS INSTITUTE OF TECHNOLOGY, priority 2018, dated 2023).

Substitutions are numbered along the chain they refer to.

Test [1] concerns the target T1, full length human estrogen receptor a (Homo sapiens, UniProt P03372).
T1 construct: purified, full-length human estrogen receptor a from Invitrogen; purchased Invitrogen
T1 sequence (P03372 1-595): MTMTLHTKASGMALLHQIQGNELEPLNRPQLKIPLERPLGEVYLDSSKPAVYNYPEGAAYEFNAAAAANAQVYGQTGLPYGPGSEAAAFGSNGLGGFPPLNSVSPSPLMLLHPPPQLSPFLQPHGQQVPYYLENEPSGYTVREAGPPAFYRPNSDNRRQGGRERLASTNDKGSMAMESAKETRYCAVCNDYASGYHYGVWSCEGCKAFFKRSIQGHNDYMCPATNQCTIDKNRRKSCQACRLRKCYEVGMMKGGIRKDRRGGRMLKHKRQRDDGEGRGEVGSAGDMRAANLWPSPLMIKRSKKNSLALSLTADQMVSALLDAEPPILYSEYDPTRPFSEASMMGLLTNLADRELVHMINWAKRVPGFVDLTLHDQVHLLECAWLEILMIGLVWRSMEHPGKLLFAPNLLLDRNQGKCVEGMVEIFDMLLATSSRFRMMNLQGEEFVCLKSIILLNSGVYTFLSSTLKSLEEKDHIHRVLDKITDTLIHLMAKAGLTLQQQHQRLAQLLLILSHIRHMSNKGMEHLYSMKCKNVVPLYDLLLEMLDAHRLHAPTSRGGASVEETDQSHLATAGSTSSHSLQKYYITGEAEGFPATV
Kind of test: Competitive radiometric binding assay (RBA), tritiated estradiol tracer. The conditions noted are these: relative to estradiol = 100; average SD of 2-3 determinations. On the procedure:
Tritiated estradiol was obtained from Perkin Elmer and purified, full-length human estrogen receptor a from Invitrogen.
Competitive radiometric binding assays (RBA) were performed on 96-well microtiter filter plates (Millipore), using full length human estrogen receptor a, with tritiated estradiol as tracer, as previously described (Carlson K E, Choi I, Gee A, Katzenellenbogen B S, Katzenellenbogen J A. Altered ligand binding properties and enhanced stability of a constitutively active estrogen receptor: evidence that an open pocket conformation is required for ligand interaction. Biochemistry 1997, 36(48), 14897-14905). After incubation on ice for 18-24 h, ERα-bound tracer was absorbed onto hydroxyapatite (BioRad), washed with buffer, and measured by scintillation counting. RBA values are the average SD of 2-3 determinations.

The nature of test [2]: Cell proliferation assay (WST-1), 6-day exposure. Format: cell-based. Particulars: 144 h, read-out: Antiproliferation IC50. On the procedure:
Cell proliferation assay: WST-1 assay (Roche, Basel, Switzerland) was used to quantify cell viability after a 6-day exposure to compounds, as described in Gong et al. Mol. Cell. Endocrinol. 2016, 437, 190-200. Absorbance was measured at 450 nm using a VICTOR X5 PerkinElmer 2030 Multilabel Plate Reader, and cell proliferation values represent signal from compound-treated samples relative to vehicle-treated controls. All assays were performed in triplicate, and the values shown are the average SD of 2-3 independent experiments.

Another test addresses T2, HA-ERα L536R (Homo sapiens, UniProt P03372, L536R).
T2 construct: HA; expressed in transfected cells
T2 sequence (P03372 1-595 L536R): T1 sequence (P03372 1-595) with L536R
Kind of test: Luciferase assay, overexpressed ER (3×-ERE-TATA-Luciferase reporter). Format: cell-based. The conditions noted are these: compound concentration 1 μM, 24 hours. The procedure, abridged:
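Cells transfected with HA-ERα wild type or mutant, 3×-ERE-TATA firefly luciferase reporter and pRL-TK Renilla, then treated one day later with compound for 24 h.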

The test system of another test is MCF7. Kind of test: Luciferase assay in MCF7. Format: cell-based. Further details: concentration or dose not given beside the values. On the procedure:
(§1) Luciferase assays were performed to determine the efficacy of the example compounds at inhibiting ER or its mutants' ability to activate transcription of genes.
(§2) Cells were plated at a density of 0.15×10^6 per well of 24 well plates one day prior to transfection. Cells were transfected with 125 ng (per well) of HA-ERα wild type or mutants, 315 ng (per well) of 3×-ERE-TATA-Luciferase reporter and 50 ng (per well) of pRL-TK Renilla Luciferase plasmid, using Xtremegene (Roche). The cells were treated with the various compounds or Fulvestrant at the indicated doses a day after transfection for 24 hours and luciferase activities were determined using the Dual-Luciferase® Reporter Assay System (Promega) according to manufacturer's instructions. Luciferase bioluminescence measurements were performed with the Veritas™ Microplate Luminometer (Promega). All experiments were conducted in triplicate and the Firefly luciferase activity was normalized with the Renilla luciferase activity of each sample.

The target in another test is T3, CRISPR KI Y537S (Homo sapiens, UniProt P03372, Y537S).
T3 construct: endogenous in cells; host or cells: CRISPR knock-in clones (cl. 4, cl. 24)
T3 sequence (P03372 1-595 Y537S): T1 sequence (P03372 1-595) with Y537S
Kind of test: Luciferase assay, CRISPR KI Y537S clones. It is filed as cell-based. Further details: concentration or dose not given beside the values. Here is the method:
as §1, §2

Take `CC(C)(C)OC(=O)N[C@@H](Cc1c[nH]c2ccccc12)C(=O)NCCCCOc1ccc(C(=C2C3CC4CC(C3)CC2C4)c2ccc(O)cc2)cc1` [Example 1, (S)-tert-Butyl (1-((4-(4-(adamantan-2-ylidene(4-hydroxyphenyl)methyl)-phenoxy)butyl)amino)-3-(1H-indol-3-yl)-1-oxopropan-2-yl)carbamate]: the “RBA (estradiol = 100)” value in test [1] worked out at 20 ± 6. Besides, the IC50 in test [2] came to 16 nM. The inhibition – broadly, the share of the control response that was lost under treatment – at 1 µM on HA-ERα L536R was 70%. In addition, the “MCF7 (% Inhibition)” value in the test on MCF7 was determined as 71%. Besides, the “CRISPR KI (% Inhibition) Y537S cl. 4” value on CRISPR KI Y537S (clone 4) is recorded as −74%. For the same molecule, the “CRISPR KI (% Inhibition) Y537S cl. 24” value on CRISPR KI Y537S (clone 24) is given as −34%.
